# Test results: patent EP1683515A2, “Bismuth-containing compounds in topical dosage forms” (Josman Laboratories, Inc., priority 1995, dated 1997)
# How the values were obtained:
# H. Pylori [1] = details: as a single agent; cited from earlier work
# [2] = Freeze-injured skin graft model; format: in vivo; details: 10 to 1000 mcg/mL; compared to placebo
# [3] = Diabetic mouse wound healing model; format: in vivo; details: 10 mcg/mL to 1,000 mcg/mL; compared to placebo treated wound
# Method: Further, wound healing potential of the above bismuth compounds is evaluated using a diabetic mouse wound healing model (Matuszewska et al., Pharmaceutical Research 11(1):65-71 (1994), incorporated herein by reference).
# rat mesentery culture = experiment: In vitro mesentery culture model, wound closure; format: cell-based; details: for concentrations of growth factors EGF and FGF: 10 mcg/mL to 1,000 mcg/mL in medium with 2% fetal calf serum; for wound closure rate: 10 mcg/mL to 1,000 mcg/mL, 24-hour, 48-hour and 72-hour, compared to the placebo
# Description: This tissue culture model is useful for gaining insights into growth factor interactions and wound healing.
# Campylobacter rectus = experiment: In vitro MIC against halitosis bacteria; format: cell-based
# Helicobacter pylori = experiment: In vitro MIC against halitosis bacteria; format: cell-based
# Treponema denticola = experiment: In vitro MIC against halitosis bacteria; format: cell-based
# [4] = four hour exposure; 0.5% in artificial saliva; mild agitation
# Description: Artificial saliva was used (Table 9). Table 9 THECOMPOSITION OF ARTIFICIAL SALIVA
# Table 10 DENTURE MATERIALS
# H. Pylori [5] = details: against H. Pylori; cited from earlier work
# [6] = of the 13 adverse reaction forms, 1978 to 1986; cited from earlier work
compound,measurement,setting,value
Cc1ncc([N+](=O)[O-])n1CCO [metronidazole],eradication rate for H. Pylori,H. Pylori [1],5%
Bismuth Ascorbyl Sulfate,wound healing in cryoinjured grafts,[2],stimulates wound healing in cryoinjured grafts in a dose-related fashion
same,wound healing,[3],heal faster
same,concentrations of growth factors EGF and FGF,rat mesentery culture,Significantly higher
same,wound closure rate,rat mesentery culture,significantly faster wound closure rate and complete closure
same,MIC,Campylobacter rectus,256 µg/mL
same,MIC,Helicobacter pylori,8 µg/mL
same,MIC,Treponema denticola,16 µg/mL
Bismuth Sucrose Sulfate,MIC,Campylobacter rectus,> 256 µg/mL
same,MIC,Helicobacter pylori,16 µg/mL
same,MIC,Treponema denticola,32 µg/mL
colloidal bismuth subcitrate [CBS],wound healing in cryoinjured grafts,[2],stimulates wound healing in cryoinjured grafts in a dose-related fashion
same,wound healing,[3],heal faster
same,concentrations of growth factors EGF and FGF,rat mesentery culture,Significantly higher
same,wound closure rate,rat mesentery culture,significantly faster wound closure rate and complete closure
same,"staining, discoloration, or changes in texture of natural tooth and other denture materials",[4],"did not cause any staining, discoloration, or changes in texture"
same,MIC range,H. Pylori [5],4 to 32 µg/mL
same,minimum inhibitory concentration (MIC),H. Pylori [5],8 µg/mL
same,MIC,Campylobacter rectus,256 µg/mL
same,MIC,Helicobacter pylori,2 µg/mL
same,adverse reactions ascribed to CBS,[6],Five
same,MIC,Treponema denticola,32 µg/mL
